{"source": "patent US20220370636A1", "about": "“NICOTINAMIDE ADENINE DINUCLEOTIDE ACTIVATOR AND USE THEREOF” (University of South Florida, priority 2021, published 2022)", "key": {"db/db mice [1]": {"tested_on": "db/db mice", "assay": "Pancreatic β cells immunostaining and Gomori aldehyde fuchsin staining in db/db mice", "assay_type": "in vivo", "conditions": "4 weeks", "procedure": "Immunostaining. Immunostaining of the pancreas was performed for the measurement of insulin secreting β cells area, as previously described. Briefly, the frozen pancreatic tissues were fixed into tissue freezing media (TFM). Pancreas were cut into 10 μm thick sections and kept at −80° C. For immunostaining, the slides were first air dried and washed with phosphate buffer saline (PBS). The sections were then fixed in 4% paraformaldehyde for 30 min and blocked with SuperBlock™ T20 (TBS) blocking buffer (Thermo scientific, MA, USA) for 30 min, at room temperature (RT). Slides were then incubated with insulin primary antibody (sc-9168, Santa Cruz, TX, USA) diluted in blocking buffer (1:200), overnight at 4° C. Slides were then washed in PBS and incubated with Alexa Fluor®488 secondary antibody (Abcam, Mass., USA) diluted in blocking buffer for 1 h at RT. Following washes, the slides were then mounted with ProLong® Gold antifade mountant containing DAPI (Molecular Probe, OR, USA). Nuclei were labelled by DAPI. The images obtained with confocal multiphoton laser scanning microscope (Olympus FV1000 MPE, Olympus Inc., USA) were quantified by using ImageJ software (NIH, USA). The cross-sectional areas of pancreas and β cells were determined from multiple sections (n=3 mice per group), separated by at least 50 μm from each section. Pancreatic β cell area was calculated by using the following formula: islet β cell area (%)=(area stained by insulin anti-body/total islets area)×100.\nGomori aldehyde fuchsin staining. The Gomori aldehyde fuchsin staining of the pancreatic β cells was performed as per previously published protocol. Briefly, the frozen pancreas was TFM embedded and cut into 6 μm thick transverse serial cryosections using Microm cryostat machine. The slides were air dried at 60° C. and dewaxed using xylene and then hydrated through decreasing concentrations of ethyl alcohol. The slides were then rinsed in cold tap water followed by a single rinse in 50% ethanol and immersed in aldehyde fuchsin (Electron Microscopy Services, PA, USA) for 1 h. The excess stain was removed by rinsing in 70% ethanol and tap water. The slides were then counter-stained with Light Green (American Master Tech Scientific, CA, USA) through immersion for 60 s and dehydrated with increasing concentration of ethanol, and cleared with xylene. The sections were then mounted with disterene phthalate xylene (DPX) mountant (Sigma-Aldrich, MO, USA). Images were obtained at ×20 magnification with the Olympus IX73 inverted microscope using CellSens Standard software (Olympus Soft Imaging Solution, USA) and quantified with ImageJ software (NIH, USA)."}, "db/db mice hearts": {"tested_on": "db/db mice hearts", "assay": "Pyridine nucleotide measurements in db/db hearts", "assay_type": "in vivo", "conditions": "vs vehicle control", "procedure": "Pyridine nucleotide measurements. NADH/NAD^+ ratios were determined in frozen db/db heart tissues (from the vehicle and P7C3 treated mice) using commercially available EnzyChrome kit (Bioassays, Hayward, Calif., USA) as reported before. Following manufacturer's instructions, cardiac tissue was homogenized in 100 μl of NAD^+ or NADH extraction buffer for NAD^+ and NADH determination, respectively. Samples were heated at 60° C. for 5 minutes on a heat block and neutralized by adding 100 μl of the opposite extraction buffer. Samples were then mixed by brief vortexing and centrifuged at 14,000 rpm for 5 minutes. 40 μl of supernatant from each sample was dispensed in duplicates in a 96-well plate, and 80 μl of working reagent constituted with supplier provided assay buffer, lactate dehydrogenase, lactate and MTT reagent was added to each well. Samples were gently mixed and optical density at 565 nm was acquired immediately (0 min) and after 15 minutes, at room temperature using a microplate reader. A standard curve was utilized for calculating NADH/NAD^+ levels in each sample."}, "Nampt [2]": {"target": "T1, Nampt (Mus musculus, UniProt Q99KQ4)", "T1 construct": "from tissue; host or cells: whole heart homogenate of db/db mice", "T1 sequence (Q99KQ4 whole entry)": "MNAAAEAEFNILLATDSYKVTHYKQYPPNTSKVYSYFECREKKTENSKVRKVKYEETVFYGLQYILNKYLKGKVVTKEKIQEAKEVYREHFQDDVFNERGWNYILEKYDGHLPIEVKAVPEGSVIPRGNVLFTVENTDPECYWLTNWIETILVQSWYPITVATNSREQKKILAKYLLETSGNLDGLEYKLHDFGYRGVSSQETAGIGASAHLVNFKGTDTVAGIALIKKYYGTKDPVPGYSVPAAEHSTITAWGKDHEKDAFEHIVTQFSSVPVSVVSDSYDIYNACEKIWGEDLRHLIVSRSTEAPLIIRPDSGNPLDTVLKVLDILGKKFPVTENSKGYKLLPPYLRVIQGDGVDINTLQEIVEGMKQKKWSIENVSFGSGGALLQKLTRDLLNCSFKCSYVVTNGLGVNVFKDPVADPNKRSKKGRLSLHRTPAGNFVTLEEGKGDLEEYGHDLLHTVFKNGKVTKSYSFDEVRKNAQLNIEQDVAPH", "assay": "Cardiac Nampt enzymatic activity in db/db mice", "assay_type": "in vivo", "conditions": "10 mg/kg body weight/day, i.p., four-week, vs vehicle", "source_text": "(§1) Nampt enzymatic activity."}, "db/db mice [3]": {"tested_on": "db/db mice", "assay": "Serum pyruvate in db/db mice", "assay_type": "in vivo", "conditions": "vs db-Veh", "procedure": "Serum pyruvate enzymatic activity. Serum pyruvate levels were measured using the pyruvate assay kit (Sigma-Aldrich, MO, USA) as per manufacturer's protocol. Briefly, 5 μL of the serum samples were added to each well along with the pyruvate assay buffer, probe solution and the enzyme mix, and incubated for 30 min at RT."}, "Nampt [4]": {"target": "T1, Nampt", "assay": "Gastrocnemius muscle Nampt enzymatic activity in db/db mice", "assay_type": "in vivo", "conditions": "4 weeks, vs db-Veh", "source_text": "as §1"}, "[5]": {"tested_on": "Nampt+/− and littermate WT mice", "assay": "Glucose tolerance test in Nampt+/- and littermate WT mice", "assay_type": "in vivo", "conditions": "vs vehicle"}, "db/db mice [6]": {"tested_on": "db/db mice", "assay": "Electrocardiography in db/db mice", "assay_type": "in vivo", "conditions": "10 mg/kg/day i.p., 4 weeks, vs vehicle", "procedure": "Electrocardiography (ECG). Mouse ECG recordings were obtained utilizing 2-3% isoflurane/oxygen anesthesia in lead II configuration. ECGs were acquired for a total duration of 15 min, with 1 min recordings obtained at 5-minute intervals. Heart rate was monitored, while ECG traces were acquired using PowerLab system operated with LabChart 7.2 software (AD Instruments, UK). Data were analyzed offline using the ECG module of LabChart 7.2 software, as reported elsewhere. The intervals (ms) of QTc, JT, and ST elevation (mV) were measured. QT interval was measured from the start of the Q peak to the point where the T wave returns to the isoelectric baseline (TP baseline), and heart rate corrected QT (QTc) interval was obtained using the formula (QTc=QT/(RR/100)^1/2)."}, "C57Bl/6J wildtype mice": {"tested_on": "C57Bl/6J wildtype mice", "assay": "In vivo myocardial infarction (permanent LAD ligation)", "conditions": "single bolus 10 mg/kg i.p. 30 minutes prior to LAD occlusion; 24 hours; vs vehicle", "procedure": "[…]. All surgical procedures were carried out in aseptic conditions. A left thoracotomy incision was performed at the fourth intercostal space to expose the heart and ligating the LAD coronary artery with an 8-0 polypropylene suture to induce MI as described previously. Myocardial ischemia was confirmed with both the development of pallor myocardium distal to the ligation in the left ventricle and with the ST-segment elevation on the ECG. The skin and muscle incisions were closed with a 6-0 polypropylene suture, and the mice was administered a single dose long-acting analgesic Buprenorphine SR s.c. at 0.5-1.5 mg/kg body weight. The mice were monitored for any signs of pain or discomfort and its feeding and drinking behavior. After 24 hours of occlusion of the LAD coronary artery, the mice were euthanized as per the approved IACUC protocol, and the heart was excised for further processing with 2,3,5-Triphenyltetrazolium chloride (TTC) (Sigma-Aldrich, MO, USA). The whole heart was cut into six parallel short-axis sections and stained with 1% TTC for 90 minutes and fixed overnight in 10% neutral-buffered formalin (Sigma-Aldrich, MO, USA). The TTC stained heart sections were then scanned to determine the total infarct size as the ratio of the infarcted area, i.e., not stained with TTC to the ventricular area of the 4 sections from the apex to the site of occlusion (n=3 mice/group)."}}}
{"smiles": "OC(CNc1ccccc1)Cn1c2ccc(Br)cc2c2cc(Br)ccc21", "note": "(stereo not shown) [P7C3, 3,6-Dibromo-a-[(phenylamino)methyl]-9H-carbazole-9-ethanol]", "values": [{"measurement": "number of islet of Langerhans per tissue section", "setting": "db/db mice [1]; vs db-Veh", "result": "significant increase"}, {"measurement": "number of β cells per islets of Langerhans", "setting": "db/db mice [1]; vs db-Veh", "result": "increased"}, {"measurement": "number of β cells per tissue section", "setting": "db/db mice [1]; vs db-Veh", "result": "significant increase"}, {"measurement": "insulin positive β cells area per islet of Langerhans area", "setting": "db/db mice [1]; vs vehicle", "result": "significant increase"}, {"measurement": "increase in cardiac NAD+/NADH ratio", "setting": "db/db mice hearts", "result": 2.5, "unit": "fold"}, {"measurement": "cardiac Nampt activity", "setting": "Nampt [2]", "result": "significantly increased"}, {"measurement": "serum pyruvate levels", "setting": "db/db mice [3]", "result": "significantly high"}, {"measurement": "Nampt activity in gastrocnemius muscle", "setting": "Nampt [4]", "result": "significant increase"}, {"measurement": "GTT circulating blood glucose levels", "setting": "[5]; Nampt littermate WT mice, single dose 10 mg/kg i/p", "result": "significant decrease"}, {"measurement": "GTT percent AUC", "setting": "[5]; Nampt littermate WT mice", "result": "significant decrease"}, {"measurement": "GTT blood glucose levels", "setting": "[5]; Nampt+/− mice, single dose 10 mg/kg i/p", "result": "did not show any significant effect"}, {"measurement": "GTT percent AUC", "setting": "[5]; Nampt+/− mice", "result": "no significant differences"}, {"measurement": "JT interval", "setting": "db/db mice [6]", "result": "significantly attenuated"}, {"measurement": "QTc interval", "setting": "db/db mice [6]", "result": "significantly attenuated"}, {"measurement": "ST elevation", "setting": "db/db mice [6]", "result": "significantly attenuated"}, {"measurement": "total infarct size", "setting": "C57Bl/6J wildtype mice", "result": "significant reduction"}]}
